Laboratory results taken from patent publication US20240108645A1, “SENESCENCE AND SENESCENCE ASSOCIATED SECRETORY PHENOTYPE” (Metro Biotech NSW Pty Ltd, priority 2013, published 2024).
Entries after “also recorded” stand apart in the source; their conditions may differ.

Legend:
NAMPT = NAMPT (Homo sapiens, UniProt P43490); details: in vitro; Wang et al. (2014) Cell; cited from earlier work
[1] = Body weight after whole body γ-irradiation; type: in vivo, female C57BL6 mice; details: 500cGy whole body γ-irradiation; apigenin 500 mg/kg feed; 20 days post-irradiation
Procedure: In order to assess the affects of an NAD^+ agonist on the effects of radiation, female C57BL6 (3-4 months old) were exposed to a single dose (500cGy) of whole body γ-irradiation or no irradiation (control). Mice were then maintained on chow diet with or without the addition of the NAD^+ raising compound apigenin to diet (500 mg/kg feed). The weight of the mice was determined at various time points for 20 days post-irradiation.

CD38 = biological target: T1, CD38 (Homo sapiens, UniProt P28907); details: in vitro; Esande et al. (2013) Diabetes; cited from earlier work
T1 sequence (P28907 1-300): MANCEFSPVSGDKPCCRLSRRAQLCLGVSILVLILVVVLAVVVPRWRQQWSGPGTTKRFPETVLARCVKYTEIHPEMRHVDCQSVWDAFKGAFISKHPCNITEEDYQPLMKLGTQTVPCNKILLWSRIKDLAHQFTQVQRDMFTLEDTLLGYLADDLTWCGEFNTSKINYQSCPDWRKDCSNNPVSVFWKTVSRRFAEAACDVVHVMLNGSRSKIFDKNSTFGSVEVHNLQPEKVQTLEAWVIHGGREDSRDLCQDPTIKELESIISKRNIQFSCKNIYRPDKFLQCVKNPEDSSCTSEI

[2] = test system: senescence associated β-galactosidase; experiment: Senescence associated β-galactosidase staining of epididymal adipose tissue whole mounts; type: in vivo, C57BL6 mice
Procedure: 18 month old C57BL6 mice were treated with or without […] intraperitoneal apigenin for 7 days. Epidydimal adipose tissue whole mounts were obtained from the mice and stained for expression of senescence associated β-galactosidase according to the chromogenic protocol of Debacq-Chainiaux F et al., Protocols to Detect Senescence-associated beta-galactosidase (SA-betagal) activity, a biomarker of senescent cells in culture and in vivo, Nature Protocols 2009; 4(12): 1798-1806. Cells that have undergone cellular senescence express β-galactosidase and stain blue (which can be seen as a darker grey in FIG. 1A).

3T3-L1 adipocytes [3] = experiment: Intracellular lipid content (oil red o) of 3T3-L1 adipocytes treated with antiretroviral agents; details: apigenin 25 μM; cells treated 24 hr with 30 μM AZT, Efavirenz, Lopinavir, Ritonavir
Procedure: The ability of NAD^+ agonists to reduce or prevent lipodystrophy associated with anti-retroviral compounds was assessed. The ability of NMN to prevent or reduce lipodystrophy was tested by determining the lipid content of 3T3-L1 adipocytes treated with a vehicle, or the antiretroviral agent stavudine, either alone or in combination with NMN.
3T3-L1 adipocytes were treated for 24 hr with the HIV antiretroviral compound stavudine (10 nM) in the presence or absence of NMN (1 mM). Intracellular lipid content was assessed using oil red o staining, which was quantified by reading absorbance at 544 nm. Error bars: SD.
In order to further test the ability of NAD^+ agonists to reduce lipodystrophy associated with antiretroviral agents, 3T3-L1 adipocytes were treated for 24 hr with various antiretroviral compounds (30 μM) in the presence or absence of NMN (1 mM) or apigenin (25 μM). Intracellular lipid content was assessed using oil red o staining, which was quantified by reading absorbance at 544 nm.

C2C12 myoblasts [4] = experiment: SA-β-Gal staining of C2C12 myoblasts incubated with various agents; type: cell-based
Procedure: The ability of NAD^+ agonists to reduce senescence associated with various agents was tested by inclubating C2C12 myoblasts with various agents in the presence or absence of NMN or apigenin, and the cells subsequent stained as mentioned above for SA-β-Gal activity. The following agents were tested: [table]

C2C12 myoblasts [5] = experiment: SA-β-Gal activity in C2C12 myoblasts by flow cytometry with C12FDG; type: cell-based
Procedure: To determine the ability of NAD^+ agonists to prevent or reduce senescence associated with treatment with corticoids, C2C12 myoblasts were assayed for SA-β-Gal activity following contact with vehicle, NMN, apigenin, dexamethasone, dexamethasone and NMN, and dexamethasone and apigenin. SA-β-Gal activity was determined using the fluorogenic substrate, C12FDG, by flow cytometry (protocol of Debacq-Chainiaux et al. Nature Protocols 2009). FIG. 7A: […] FIGS. 7B and 7C: […] SA-β-Gal activity was decreased with NMN and/or apigenin. All data are presented as the mean value. * p<0.05, **** p<0.0001, using two-way ANOVA multiple comparisons test.

[6] = Body weight after doxorubicin; type: in vivo, male C57BL6 mice; details: doxorubicin 10 mg/kg i.p. + apigenin 500 mg/kg of diet from 8 days before
Procedure: Vehicle control: 10% DMSO in PBS administered intraperitoneally; • 2. Apigenin: administered in diet at 500 mg/kg of diet, in addition to vehicle control administered i.p.; • 3. […] Apigenin administered in diet of 500 mg/kg of diet, and doxorubicin administered at 10 mg/kg body weight i.p. Apigenin was administered 8 days prior to administration of a single dose of doxorubicin. Body weight was assessed during the course of the experiment as a read-out of general health and malaise, the results of which are shown in FIG. 11.

3T3-L1 adipocytes [7] = experiment: SA-β-gal chromogenic staining of dexamethasone treated 3T3-L1 adipocytes; type: cell-based; details: 5 days; dexamethasone 1, 0.5, 0.1 or 0.01 mg/ml; 1 mM NMN, 25 mM apigenin
Procedure: To further investigate the effects of NAD^+ agonists on dexamethasone induced senescence, 3T3-L1 adipocytes were treated for 5 days with ethanol (control), or 1 mg/ml, 0.5 mg/ml, 0.1 mg/ml or 0.01 mg/ml of dexamethasone in combination with either DMSA, 1 mM NMN, 25 mM apigenin, or 1 mM NMN and 25 mM apigenin and subjected to senescence associated beta-galactosidase staining according to the chromogenic protocol of Debacq-Chainiaux F et al Nature Protocols 2009.

p16^INK4A = experiment: Doxorubicin-induced senescence in p16^LUC mice, bioluminescence/CT imaging; type: in vivo; details: doxorubicin 1 mg/kg i.p. + apigenin 500 mg/kg of food from 4 days before; vs doxorubicin alone
Procedure: Vehicle control: 10% DMSO in PBS administered intraperitoneally; • 2. Apigenin: administered in diet at 500 mg/kg of food in addition to vehicle control administered i.p.; • 3. […] Apigenin administered in chow diet at 500 mg/kg of food, and doxorubicin administered at 1 mg/kg body weight i.p. Apigenin was administered 4 days prior to administration of doxorubicin. The animals were subjected to bioluminescence/CT imaging (Spectrum-CT instrument, PerkinElmer) as a readout for senescence 24 hours after treatment was completed. Areas of luminescence are shown as lightened areas in FIG. 5 and are indicated by an arrow.

[8] = test system: senescence associated secretory proteins and cell cycle markers (mRNA); experiment: Quantitative RTPCR of senescence marker mRNA in epidymal adipose tissue; type: in vivo, C57BL6 mice; details: chow or high fat feed supplemented with 500 mg/kg apigenin
Procedure: C57BL6 mice were fed chow, chow supplemented with 500 mg/kg apigenin, high fat feed or high fat feed supplemented with 500 mg/kg apigenin for 6 months. At 6 months, mRNA expression levels of senescence associated secretory proteins was determined in epidymal adipose tissue using quantitative RTPCR. At 12 months, mRNA expression levels of cell cycle markers was determined in epidymal adipose tissue using quantitative RTPCR.

Chain of NAMPT (P43490 whole entry, species assumed): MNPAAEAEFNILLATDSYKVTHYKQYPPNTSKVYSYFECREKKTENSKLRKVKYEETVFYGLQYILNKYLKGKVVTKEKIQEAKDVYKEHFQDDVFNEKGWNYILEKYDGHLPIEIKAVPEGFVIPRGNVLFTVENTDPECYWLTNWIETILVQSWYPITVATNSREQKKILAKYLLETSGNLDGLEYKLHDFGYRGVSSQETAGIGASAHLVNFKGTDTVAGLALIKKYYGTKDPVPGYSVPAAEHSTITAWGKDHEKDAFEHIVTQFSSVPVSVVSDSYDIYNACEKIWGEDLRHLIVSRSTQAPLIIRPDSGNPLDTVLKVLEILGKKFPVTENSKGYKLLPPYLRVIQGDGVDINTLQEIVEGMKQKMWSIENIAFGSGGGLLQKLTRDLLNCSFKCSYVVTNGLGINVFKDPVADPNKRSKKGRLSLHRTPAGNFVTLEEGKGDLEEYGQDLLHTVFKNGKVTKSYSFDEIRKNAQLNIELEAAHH

For OC(CNc1ccccc1)Cn1c2ccc(Br)cc2c2cc(Br)ccc21 (stereo not drawn) [P7C3], the “activity of NAMPT” value (NAMPT) is listed as “enhances activity of NAMPT in vitro”.

In the case of O=c1cc(-c2ccc(O)cc2)oc2cc(O)cc(O)c12 [apigenin, 5,7-dihydroxy-2-(4-hydroxyphenyl)-4H-1-benzopyran-4-one], the “body weight after irradiation” value [1] is given as “prevented this weight loss”, the “inhibition of CD38 activity” value (CD38) is given as “inhibitors of CD38 activity in vitro” and the “SA-β-gal staining of adipose tissue (FIG. 1B)” value ([2]; 3 and 18 month old mice fed chow or chow supplemented with apigenin) is given as “little or no staining”. The “senescence associated β-galactosidase staining of adipose tissue (FIG. 1A)” value ([2]; 18 month old mice, 100 mg/day intraperitoneal apigenin for 7 days / chow supplemented daily with 100 mg/kg apigenin, vs chow fed control, 100 mg/kg) was “less compared to chow fed mice; also recorded: significantly less senescence-associated β-galactosidase expression”, the “lipodystrophy (intracellular lipid content, oil red o)” value (3T3-L1 adipocytes [3]) was “reduced lipodystrophy” and the “extent of senescence (proportion of cells stained blue, SA-β-Gal activity)” value (C2C12 myoblasts [4]; agents of the table of b212 with vs without apigenin or NMN) was “reduce the extent of senescence induced by the agents tested”. For the same compound, the “extent to which the cells undergo senescence” value (C2C12 myoblasts [4]; co-administration with AZT, 3TC, zalcitabine, efavirenze, lopinavir, ritonavir, nevirapine, tipranavir, tenofovir, invirase vs agent alone) was “reduces the extent to which the cells undergo senescence”, the “extent to which the cells undergo senescence” value (C2C12 myoblasts [4]; co-administration with PPARγ agonist rosiglitazone vs rosiglitazone alone) was “reduces the extent to which the cells undergo senescence” and the “extent to which the cells undergo senescence” value (C2C12 myoblasts [4]; co-administration with antiprotozoal agent quinacrine vs quinacrine alone) was “reduces the extent to which the cells undergo senescence”. For the same compound, the “extent to which the cells undergo senescence” value (C2C12 myoblasts [4]; co-administration with each of the chemotherapeutic agents listed in b109 vs agent alone) was “reduces the extent to which the cells undergo senescence”, the “extent to which the cells undergo senescence” value (C2C12 myoblasts [4]; co-administration with xanthine oxidase inhibitor allopurinol vs allopurinol alone) was “reduces the extent to which the cells undergo senescence” and the “extent to which the cells undergo senescence” value (C2C12 myoblasts [4]; co-administration with zolendronate vs zolendronate alone) was “reduces the extent to which the cells undergo senescence”. The “SA-β-Gal activity (FIG. 7B)” value (C2C12 myoblasts [5]; 72 hours, dexamethasone sodium phosphate 250 nM or PBS, NMN 1 mM or apigenin 25 uM) was “decreased”, the “SA-β-Gal activity (FIG. 7C)” value (C2C12 myoblasts [5]; 96 hours, dexamethasone sodium phosphate 250 nM or PBS, NMN 1 mM or apigenin 25 uM) was “decreased” and the “percentage of cells which exhibited SA-β-Gal activity following treatment with dexamethasone” value (C2C12 myoblasts [5]; summary of FIGS. 7A-7C) was “reduced the percentage of cells which exhibited SA-β-Gal activity”. For the same compound, the body weight [6] was “rescue in body weight to a degree similar to non-doxorubicin treated animals”, the “SA-β-gal staining (blue cells), dexamethasone induced senescence” value (3T3-L1 adipocytes [7]) was “reduce or prevent senescence induced by dexamethasone” and the “p16^INK4A induction (bioluminescence)” value (p16^INK4A) was “little or no signs of p16^INK4A induction”. For the same compound, the “mRNA expression of senescence associated secretory proteins (FIG. 2)” value ([8]; 6 months) was “significant reduction in expression of senescence markers” and the “mRNA expression of cell cycle markers (FIG. 3)” value ([8]; 12 months) was “significant reduction in expression of senescence markers”.
